# From patent publication US8580957B2, “Thetrahydroquinolines derivatives as bromodomain inhibitors” (GlaxoSmithKline LLC, priority 2009, dated 2013)
# Counter-ions that a name gives are not always drawn. Like-named read-outs stand apart in the source and are kept apart here.
# What was measured:
# [1] = test system: LPS induced IL-6 secretion from whole blood; test: Measurement of LPS Induced IL-6 Secretion from Whole Blood; format: cell-based; settings: LPS 200 ng/ml, 24 hours, read-out: pIC50 (IL-6 levels) (converted)
# Method: Measurement of LPS Induced IL-6 Secretion from Whole Blood
# (§1) Activation of monocytic cells by agonists of toll-like receptors such as bacterial lipopolysaccharide (LPS) results in production of key inflammatory mediators including IL-6. Such pathways are widely considered to be central to the pathophysiology of a range of auto-immune and inflammatory disorders.
# Compounds to be tested are diluted to give a range of appropriate concentrations of which 1 ul of the diluted stocks is added to a 96 well plate. Following addition of whole blood (130 ul) the plates are incubated at 37 degrees (5% CO2) for 30 min before the addition of 10 ul of 2.8 ug/ml LPS, diluted in complete RPMI 1640 (final concentration=200 ng/ml), to give a total volume of 140 ul per well. After further incubation for 24 hours at 37 degrees, 140 ul of PBS are added to each well. The plates are sealed, shaken for 10 minutes and then centrifuged (2500 rpm×10 min). 100 ul of the supernatant are removed and IL-6 levels assayed by immunoassay (typically by MesoScale Discovery technology) either immediately or following storage at −20 degrees. Concentration response curves for each compound was generated from the data and an IC50 value was calculated.
# [2] = test system: TNFα levels in LPS stimulated whole blood; test: LPS Stimulated Whole Blood Measuring TNFα Levels Assay; format: cell-based; settings: LPS 200 ng/ml, 24 hours, read-out: pIC50 (TNFα levels) (converted)
# Method: LPS Stimulated Whole Blood Measuring TNFα Levels Assay
# as §1, with “TNFα.” for “IL-6.”
# Compounds to be tested are diluted to give a range of appropriate concentrations and 1 ul of the dilution stocks is added to wells of a 96 plate. Following addition of whole blood (130 ul) the plates are incubated at 37 degrees (5% CO2) for 30 min before the addition of 10 ul of 2.8 ug/ml LPS, diluted in complete RPMI 1640 (final concentration=200 ng/ml), to give a total volume of 140 ul per well. After further incubation for 24 hours at 37 degrees, 140 ul of PBS are added to each well. The plates are sealed, shaken for 10 minutes and then centrifuged (2500 rpm×10 min). 100 ul of the supernatant are removed and TNFα levels assayed by immunoassay (typically by MesoScale Discovery technology) either immediately or following storage at −20 degrees. Dose response curves for each compound was generated from the data and an IC50 value was calculated.
# [3] = test system: Balb/c male mice given a lethal dose of LPS; test: In Vivo Mouse Endotoxemia Model; settings: 15 mg/kg LPS i.p.; compound 10 mg/kg intravenously 90 min later; summed across multiple repeat experiments
# From the text: In Vivo Mouse Endotoxemia Model
# High doses of Endotoxin (bacterial lipopolysaccharide) administered to animals produce a profound shock syndrome including a strong inflammatory response, dysregulation of cardiovascular function, organ failure and ultimately mortality. This pattern of response is very similar to human sepsis and septic shock, where the body's response to a significant bacterial infection can be similarly life threatening.
# To test the compounds of the invention groups of eight Balb/c male mice were given a lethal dose of 15 mg/kg LPS by intraperitoneal injection. Ninety minutes later, animals were dosed intravenously with vehicle (20% cyclodextrin 1% ethanol in apyrogen water) or compound (10 mg/kg). The survival of animals was monitored at 4 days.
# Numbers of animals surviving at 4 days (summed across multiple repeat experiments)
# [4] = test system: Human cell lines (n=33 comprising 15 heme cell lines, 14 breast cell lines and 4 other cell lines); test: Oncology Growth Assay (CellTiter-Glo); format: cell-based; settings: 72 hours
# Method: Human cell lines (n=33 comprising 15 heme cell lines, 14 breast cell lines and 4 other cell lines) were cultured in RPMI-1640 containing 10% fetal bovine serum, 1000 viable cells per well were plated in 384-well black flat bottom polystyrene plates (Greiner #781086) in 48 μl of culture media. All plates were placed at 5% CO2, 37° C. overnight. The following day one plate was harvested with CellTiter-Glo (CTG, Promega #G7573) for a time equal to 0 (T0) measurement and compound (20 point titration from 14.7 uM to […]) was added to the remaining plates. The final concentration of DMSO in all wells was 0.15%. Cells were incubated for 72 hours or the indicated time and each plate was developed with CellTiter-Glo reagent using a volume equivalent to the cell culture volume in the wells. Plates were shaken for approximately 2 minutes and chemiluminescent signal was read on the Analyst GT (Molecular Devices) or EnVision Plate Reader (Perkin Elmer).
# Results were expressed as a percent of the TO and plotted against the compound concentration. The TO value was normalized to 100% and represents the number of cells at time of compound addition and the concentration response data were fit with a 4 parameter curve fit using XLfit software (model 205). The concentration that inhibited cell growth by 50% (gIC50) is the midpoint of the ‘growth window’ (between the TO and DMSO control). The Ymin−T0 value is determined by subtracting the T0 value (100%) from the Ymin value (%) determined from the fit of the concentration response curve. Values from the wells with no cells were subtracted from all samples for background correction.
Structure (SMILES),melting point [°C],IC50 [2] [µM],also measured
"CC(=O)N1c2ccc(-c3ccc(CN4CCCCC4)cc3)cc2[C@@H](Nc2ccc(F)cc2)C[C@H]1C (racemic) [Example 11, 1-Acetyl-2-methyl-N-(4-fluorophenyl)-6-[4-(1-piperidinylmethyl)phenyl]-1,2,3,4-tetrahydro-4-quinolinamine]",106,,
"CC(=O)N1c2ccc(-c3ccc(CN4CCCCC4)cc3)cc2[C@H](Nc2ccccc2)C[C@@H]1C [Example 164, (2S,4R)-1-Acetyl-2-methyl-N-phenyl-6-[4-(1-piperidinylmethyl)phenyl]-1,2,3,4-tetrahydro-4-quinolinamine]",,≤ 10,IC50 [1]: ≤ 10 µM
"CC(=O)N1c2ccc(-c3ccc(C#N)cc3)cc2[C@@H](Nc2ccc(F)cc2)C[C@H]1C (racemic) [Example 62, 4-{1-acetyl-4-[(4-fluorophenyl)amino]-2-methyl-1,2,3,4-tetrahydro-6-quinolinyl}benzonitrile]",140,,
"CC(=O)N1c2ccc(-c3ccc(C(=O)O)cc3)cc2[C@H](Nc2ccc(Cl)cc2)C[C@@H]1C [Example 6, 4-{(2S,4R)-1-acetyl-4-[(4-chlorophenyl)amino]-2-methyl-1,2,3,4-tetrahydro-6-quinolinyl}benzoic acid]",,,"IC50 [1]: ≤ 10 µM; Animals surviving at 4 days (percent) [3]: 58%; Numbers of animals surviving at 4 days [3]: 14/24; IC50 ([4]; all 33 cell lines, read-out: gIC50 across all cell lines): 0.035 to 9.2 µM; IC50 ([4]; breast cell lines, read-out: gIC50 for breast cell lines): 0.04 to 9.2 µM; IC50 ([4]; heme cell lines, read-out: gIC50 for heme cell lines): 0.035 to 0.844 µM"
"CCOC(=O)c1ccc(-c2ccc3c(c2)[C@@H](Nc2ccc(Cl)cc2)C[C@@H](C)N3C(C)=O)cc1 (stereo in doubt) [Example 119, Ethyl 4-{1-acetyl-4-[(4-chlorophenyl)amino]-2-methyl-1,2,3,4-tetrahydro-6-quinolinyl}benzoate]",114,,
COC(=O)c1ccc(-c2ccc3c(c2)C(Nc2ccc(C#N)cc2)CC(C)N3C(C)=O)cc1 (stereo not drawn) [Example 82],252,,
"CCN(c1ccccc1)[C@H]1C[C@@H](C)N(C(C)=O)c2ccc(-c3ccccc3)cc21 (stereo in doubt) [Example 87, 1-acetyl-N-ethyl-2-methyl-N,6-diphenyl-1,2,3,4-tetrahydro-4-quinolinamine]",121,≤ 10,
"CCNC(=O)c1ccc(-c2ccc3c(c2)[C@@H](Nc2ccc(Cl)cc2)C[C@@H](C)N3C(C)=O)cc1 (stereo in doubt) [Example 101, 4-{1-Acetyl-4-[(4-chlorophenyl)amino]-2-methyl-1,2,3,4-tetrahydro-6-quinolinyl}-N-ethylbenzamide]",134,,
"CC(=O)N1c2ccc(-c3ccc(CN(C)C)cc3)cc2[C@@H](Nc2ccccc2)C[C@H]1C (racemic) [Example 35, 1-acetyl-6-{4-[(dimethylamino)methyl]phenyl}-2-methyl-N-phenyl-1,2,3,4-tetrahydro-4-quinolinamine]",90,,
"CC(=O)N1c2ccc(-c3ccc(CN4CCCCC4)cc3)cc2[C@@H](Nc2ccc(F)cn2)C[C@H]1C (racemic) [Example 137, (cis)-1-Acetyl-N-(5-fluoro-2-pyridinyl)-2-methyl-6-[4-(1-piperidinylmethyl)phenyl]-1,2,3,4-tetrahydro-4-quinolinamine formate salt]",,≤ 10,IC50 [1]: ≤ 10 µM
"CC(=O)N1c2ccc(-c3ccc(-c4nn[nH]n4)cc3)cc2[C@@H](Nc2ccc(Cl)cc2)C[C@H]1C (stereo in doubt) [Example 121, 1-Acetyl-N-(4-chlorophenyl)-2-methyl-6-[4-(1H-tetrazol-5-yl)phenyl]-1,2,3,4-tetrahydro-4-quinolinamine]",250,,
"CC(=O)N1c2ccc(-c3ccc(CN4CCCCC4)cc3)cc2[C@@H](Nc2ccc(C(F)(F)F)cn2)C[C@H]1C (racemic) [Example 134, (cis)-1-Acetyl-2-methyl-6-[4-(1-piperidinylmethyl)phenyl]-N-[5-(trifluoromethyl)-2-pyridinyl]-1,2,3,4-tetrahydro-4-quinolinamine formate salt]",,≤ 10,
"CC[C@@H]1C[C@H](Nc2ccccc2)c2cc(-c3ccc(C(=O)O)cc3)ccc2N1C(C)=O (racemic) [Example 162, 4-[(cis)-1-Acetyl-2-ethyl-4-(phenylamino)-1,2,3,4-tetrahydro-6-quinolinyl]benzoic acid]",,≤ 10,
"CC(=O)N1c2ccc(-c3ccc(C(=O)O)cc3)cc2[C@@H](Nc2ccccc2)C[C@H]1C (stereo in doubt) [Example 91, 4-[1-Acetyl-2-methyl-4-(phenylamino)-1,2,3,4-tetrahydro-6-quinolinyl]benzoic acid]",,≤ 10,
CC(=O)N1c2ccc(-c3ccc(C(=O)N4CCOCC4)cc3)cc2C(Nc2ccc(Cl)cc2)CC1C (stereo not drawn) [Example 109],146,≤ 10,
